For assay [1], the target named is T1, caspase 3 (Homo sapiens, UniProt P42574).
T1 construct: the N-terminal region encoding a protein with a molecular weight of about 17 kDa (p17); C-terminal region encoding a protein with a molecular weight of about 12 kDa (p12); made in house; host or cells: Escherichia coli BL21 (DE3) pLysS, plasmid pET3a
T1 sequence (P42574 29-175 limits assumed): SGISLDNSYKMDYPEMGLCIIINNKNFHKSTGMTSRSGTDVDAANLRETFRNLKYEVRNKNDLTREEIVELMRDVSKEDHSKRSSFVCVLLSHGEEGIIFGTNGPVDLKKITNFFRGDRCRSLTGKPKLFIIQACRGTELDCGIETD
T1 sequence (P42574 176-277 limits assumed): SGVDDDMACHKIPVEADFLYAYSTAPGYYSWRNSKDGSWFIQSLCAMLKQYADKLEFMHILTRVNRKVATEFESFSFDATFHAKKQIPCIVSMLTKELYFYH
Description: Screening method of caspase 3 inhibitor, in the presence of zinc ion (substrate solution containing 3 mM ZnSO4). The class given is biochemical. The following applies: for ratio (enzyme activity (+Zn)/enzyme activity (-Zn)): test compound 100 µM, 25 ng/100 µL human caspase 3, reaction time 15 minutes; for IC50: in the presence of zinc ion. Here is the method:
(§1) From human brain cDNA, the N-terminal region encoding a protein with a molecular weight of about 17 kDa (p17) and C-terminal region encoding a protein with a molecular weight of about 12 kDa (p12) were amplified by PCR, and then subcloned into an Escherichia coli expression plasmid (pET3a). Using these plasmids, a host bacterium for expressing proteins (BL21 (DE3) pLysS) was transformed. Then, the transformed bacterium was cultured in M9 medium and an active caspase 3 was prepared. Firstly, fungus body recovered from M9 medium was broken by sonication and an inclusion body was recovered by centrifugation. The inclusion body was solubilized under denatured conditions using 3M guanidine solution, and after mixing with p17 polypeptide and p12 polypeptide, diluted with a dialysis solution. The whole was left at room temperature for 1 hour at this situation, and after regeneration, concentrated. After the sample was dialyzed to exchange the buffer solution, insoluble proteins were removed by ultracentrifugation (100,000 X G, 30 minutes). Upon quantitative protein determination, about 30 mg of a protein was recovered.
Solution A comprising composition of 50 mM HEPES, pH 7.5, 10% (w/v) saccharose, and 0.1% (w/v) 3-[(3-cholamidopropyl)dimethylammonio]-1-propane sulfonate (CHAPS) was used as the base of a liquid for enzymatic reaction with adding a test compound, if necessary. […] In a control experiment, caspase 3 mixed with DMSO instead of the test compound was used. Then, 100 µL of 50 µM Ac-Asp-Glu-Val-Asp-MCA (Solution A, Peptide Kenkyusyo, 3171-v) as a substrate solution were added thereto to start reaction. Time course of the decomposition of the substrate were measured on a fluorescent photometer (Corona Denki, MTP-32, excitation wavelength/360 nm, emission waverangeth/450 nm or SLT, fluostar, excitation wavelength/380 nm, emission wavelength/460 nm) and an enzyme activity of the test compound-added group relative to the control was calculated.
(§2) The effects of the test compound at various concentrations on the enzyme activity were measured in a similar manner to the case in the absence of zinc ion as described in the section 1). However, a substrate solution containing 3 mM ZnSO4 was used.
The enzyme activities calculated in the absence of zinc ion (-Zn) and in the presence of zinc ion (+Zn) were compared (enzyme activity (+Zn)/enzyme activity (-Zn)).

In assay [2] the target is T1, caspase 3. Description: Examination of caspase 3 inhibitory mode in the presence of zinc (Lineweaver-Burk plots). The class given is biochemical. As to the method:
(§3) Solution A comprising composition of 50 mM HEPES, pH 7.5, 10% (w/v) saccharose, and 0.1% (w/v) 3-[(3-cholamidopropyl)dimethylammonio]-1-propane sulfonate (CHAPS) was used as the base of a liquid for enzymatic reaction with adding a test compound, if necessary. A 10 ng/100 µL human caspase 3 solution (Solution B: Solution A + 10 mM dithiothreitol (DTT)) and a test compound at different concentrations were mixed and the mixture was left at room temperature for 30 minutes. In a control experiment, caspase 3 mixed with DMSO instead of the test compound was used. Then, 100 µL of 50 µM Ac-Asp-Glu-Val-Asp-MCA (Solution A, Peptide Kenkyusyo, 3171-v) as a substrate solution were added thereto to start reaction. Time course of the decomposition of the substrate were measured on a fluorescent photometer (Corona Denki, MTP-32, excitation wavelength/360 nm, emission waverangeth/450 nm or SLT, fluostar, excitation wavelength/380 nm, emission wavelength/460 nm) and an enzyme activity of the test compound-added group relative to the control was calculated.
as §2
The caspase 3 inhibitory mode of Compound A in the presence of zinc was examined according to the methods 1) and 2) of Example 3. […] The inhibitory mode was analyzed with Lineweaver-Burk plots (double reciprocal plots).
The caspase 3 inhibitory mode of Compound B in the presence of zinc was examined according to the methods 1) and 2) of Example 3. […] The inhibitory mode was analyzed with Lineweaver-Burk plots (double reciprocal plots).
The caspase 3 inhibitory mode of Compound C in the presence of zinc was examined according to the methods 1) and 2) of Example 3. […] The inhibitory mode was analyzed with Lineweaver-Burk plots (double reciprocal plots).

Assay [3] concerns the target T1, caspase 3. Description: Screening method of caspase 3 inhibitor, in the absence of zinc ion (fluorogenic substrate Ac-Asp-Glu-Val-Asp-MCA). The class given is biochemical. The following applies: for inhibition at 100 µM: at 100 µM in the absence of zinc ion, read-out: enzyme activity inhibited. Here is the method: as §1
as §3, with “Then, 100 µL of 50 µM Ac-Asp-Glu-Val-Asp-MCA (Solution A, Peptide Kenkyusyo, 3171-v) as a substrate solution were added thereto to start reaction.” left out

Another assay has as its system rat hippocampal neuron. Description: Apoptosis inhibitory action: suppression of DNA fragmentation induced by Etoposide. The assay is classed as cell-based. As to the method:
Cultured rat hippocampal neuron was prepared according to a usual method (Neurochem. Int., 31(5), 715-722, 1997). Brain was taken out of a fetus of rat at day 19 of gestation, and hippocampus was picked up under a stereomicroscope. The hippocampus was treated with an enzyme, dispersed by pipetting several times, and cell clusters were removed through a filter to prepare a cell suspension. The cell was cultured at a concentration of 1.2 x 10^5 cells/cm^2 in a 12-well plate coated with polylysine. A "culture medium for neuron" manufactured by Sumitomo Bakelite Co., Ltd. was used as the culture liquid. The neuronal cell at 13 to 16 days of culture was used. Etoposide was employed for inducing apoptosis of the neuronal cell. The induction of DNA fragments was evaluated as a marker of apoptosis.
Cell stimulation was carried out by replacing the cell culture medium with a serum-free medium containing 3 µg/mL Etoposide. After 6 hours from the start of the stimulation, the cell was recovered. TaKaRa ApopLadder Ex kit was used for the extraction of fragmented DNA. The fragmented DNA were subjected to electrophoresis followed by staining with CYBR Green, and the fluorescence intensity of the DNA was measured by means of a scanner manufactured by Molecular Dynamics Co.

The IC50 is the concentration that gives 50% inhibition.

The structures appear in SMILES notation. Peptide text beside a SMILES is read from it. * marks the point of attachment. Cbz = O=C(OCc1ccccc1)*; CH2F = FC*

Take `c1ccc2[nH]c(Cc3nc4ccccc4[nH]3)nc2c1` [Compound A, bis(1H-benzimidazol-2-yl)methane]: the “ratio (enzyme activity (+Zn)/enzyme activity (-Zn))” value at caspase 3 [1] is given as 0.37. The “caspase 3 inhibitory mode” value on caspase 3 [2] is “substrate-competitive and reversible”.

As to `ON=C(c1nc2ccccc2[nH]1)c1nc2ccccc2[nH]1` [Compound B, bis(1H-benzimidazol-2-yl)ketone oxime], the “ratio (enzyme activity (+Zn)/enzyme activity (-Zn))” value at caspase 3 [1] worked out at 0.44. Further, at caspase 3 [2], the “caspase 3 inhibitory mode” value was “substrate-competitive and reversible”.

Turning to `CCCN1C(=O)C2(Oc3c(c(=O)n(CCC)c4ncccc34)S2)C(=O)c2cccnc21` (centres unmarked) [Compound C, 1,5'-dipropylspiro[1,8-naphthyridine-3(2H),2'-[1,3]oxathiolo[4,5-c][1,8]naphthyridine]-2,4,4' (1H,5'H)-trione], at caspase 3 [3], the inhibition at 100 µM amounted to 17%. The IC50 is 17000 nM in the assay with rat hippocampal neuron (Rattus norvegicus, Hippocampal neuron, 3 µg/mL Etoposide, 6 hours, compound at 10, 25, 50 µM, no zinc added to medium) and 1200 nM on caspase 3 [1]. Further, the “caspase 3 inhibitory mode” value on caspase 3 [2] is “substrate-competitive and reversible”.

Regarding `CCCN1C(=O)C2(Oc3c(c(=O)n(CCC)c4ccccc34)S2)C(=O)c2ccccc21` (centres unmarked) [Compound D], the inhibition at 100 µM at caspase 3 [3] was 13%. Besides, in the assay with rat hippocampal neuron (at a concentration of 33.3 µM, added together with Etoposide), the apoptosis inhibitory action entry is given as “strong apoptosis inhibitory action”. Also, the IC50 on caspase 3 [1] was determined as 350 nM.

`COC(=O)C[C@H](NC(=O)[C@H](C)NC(=O)[C@@H](NC(=O)OCc1ccccc1)C(C)C)C(=O)CF` [z-VAD.FMK, z-Val-Ala-Asp(OMe)-CH2F, reference compound] (Cbz-Val-Ala-Asp(OMe)-CH2F): the IC50 against caspase 3 [3] (in the absence of zinc ion, reaction time 30 minutes) amounted to 510 nM; on caspase 3 [1] (reaction time 30 minutes), 550 nM. Further, the “effect of zinc ion on the caspase 3 inhibitory activity” value at caspase 3 [1] (comparison of presence and absence of zinc ion) is recorded as “no remarkable enhancing effect”.

For the origin of these results see patent EP1172443A1, “METHOD FOR SCREENING CYSTEINE PROTEASE INHIBITOR” (YAMANOUCHI PHARMACEUTICAL CO. LTD., priority 1999, dated 2000).
